Measured values reported in patent US9938273B2 (Plexxikon Inc., priority 2015, dated 2018).

Molecular target: T1, BA/F3-FLT3-ITD + D835Y cells (Homo sapiens, UniProt P36888, D835Y, cells depend on it, form not given)
T1 sequence (P36888 1-993 D835Y): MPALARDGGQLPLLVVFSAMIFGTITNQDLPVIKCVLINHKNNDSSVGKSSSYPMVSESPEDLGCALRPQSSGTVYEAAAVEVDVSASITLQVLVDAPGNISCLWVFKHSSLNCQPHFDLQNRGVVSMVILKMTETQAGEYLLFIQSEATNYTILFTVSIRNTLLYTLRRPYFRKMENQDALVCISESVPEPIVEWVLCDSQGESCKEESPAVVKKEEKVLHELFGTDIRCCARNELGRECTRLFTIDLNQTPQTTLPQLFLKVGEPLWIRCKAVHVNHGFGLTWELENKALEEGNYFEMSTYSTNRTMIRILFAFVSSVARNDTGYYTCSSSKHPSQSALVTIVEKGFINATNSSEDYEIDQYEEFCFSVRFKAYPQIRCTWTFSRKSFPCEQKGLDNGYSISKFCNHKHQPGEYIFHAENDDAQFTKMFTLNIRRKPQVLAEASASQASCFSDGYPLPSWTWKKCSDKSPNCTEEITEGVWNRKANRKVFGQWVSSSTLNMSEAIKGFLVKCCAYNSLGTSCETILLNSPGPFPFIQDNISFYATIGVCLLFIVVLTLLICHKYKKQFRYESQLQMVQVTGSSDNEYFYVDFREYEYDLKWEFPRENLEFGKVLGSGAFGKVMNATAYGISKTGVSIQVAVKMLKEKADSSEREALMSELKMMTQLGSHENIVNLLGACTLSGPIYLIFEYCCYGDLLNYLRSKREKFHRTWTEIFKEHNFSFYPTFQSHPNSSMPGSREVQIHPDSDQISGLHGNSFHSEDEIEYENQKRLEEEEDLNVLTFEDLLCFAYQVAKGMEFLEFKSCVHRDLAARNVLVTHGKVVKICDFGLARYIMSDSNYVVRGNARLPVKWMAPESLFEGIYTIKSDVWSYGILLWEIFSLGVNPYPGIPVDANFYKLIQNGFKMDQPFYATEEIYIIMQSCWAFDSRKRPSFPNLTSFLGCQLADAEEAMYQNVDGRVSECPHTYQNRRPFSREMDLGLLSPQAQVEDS
Experiment: Cell proliferation assay (CellTiter-Glo), engineered BA/F3 cells
Assay type: cell-based, murine
Conditions: BaF3 FLT3 ITD/D835Y cells, 3d-Growth; read-out: BaF3_FLT3 ITD/D835Y 3d-Growth: IC50
Summary of the method: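 Three-day growth at 37 °C, 5% CO2 under compound (1 μM top final, 1:3 dilutions, eight points, 0.2% DMSO), read as ATP luminescence by CellTiter-Glo for IC50. Cells: MOLM-14 with FLT3 ITD plus D835Y or F691L, and IL-3-deprived Ba/F3 transfected with FLT3 ITD/D835Y, 1×10^4 per well.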

SMILES	GI50 [µM]
CC(=O)NC1CCN(C(=O)c2cccc(-c3cnc4[nH]c(-c5ccc(F)cc5)cc4c3)c2)CC1 [Compound P-0001, N-[1-[3-[2-(4-fluorophenyl)-1H-pyrrolo[2,3-b]pyridin-5-yl]benzoyl]-4-piperidyl]acetamide]	0.0001 to 10
CON(C)C(=O)c1cccc(-c2cnc3[nH]c(-c4ccccc4)cc3c2)c1 [Compound P-0002, N-methoxy-N-methyl-3-(2-phenyl-1H-pyrrolo[2,3-b]pyridin-5-yl)benzamide]	0.0001 to 10
NC1CN(C(=O)c2n[nH]c3ccc(-c4cnc5[nH]c(-c6ccccc6)cc5c4)cc23)C1 [Compound P-0029, (3-aminoazetidin-1-yl)-[5-(2-phenyl-1H-pyrrolo[2,3-b]pyridin-5-yl)-1H-indazol-3-yl]methanone]	0.0001 to 10
CNC(=O)C1CCN(C(=O)c2cccc(-c3cnc4[nH]c(-c5ccccc5)cc4c3)n2)CC1 [Compound P-0030, N-methyl-1-[6-(2-phenyl-1H-pyrrolo[2,3-b]pyridin-5-yl)pyridine-2-carbonyl]piperidine-4-carboxamide]	0.0001 to 10
CCNC(=O)NC1CCN(C(=O)c2cccc(-c3cnc4[nH]c(-c5ccccc5)cc4c3)n2)CC1 [Compound P-0031, 1-ethyl-3-[1-[6-(2-phenyl-1H-pyrrolo[2,3-b]pyridin-5-yl)pyridine-2-carbonyl]-4-piperidyl]urea]	0.0001 to 10
CS(=O)(=O)NC1CCN(C(=O)c2cccc(-c3cnc4[nH]c(-c5ccccc5)cc4c3)n2)CC1 [Compound P-0032, N-[1-[6-(2-phenyl-1H-pyrrolo[2,3-b]pyridin-5-yl)pyridine-2-carbonyl]-4-piperidyl]methanesulfonamide]	0.0001 to 10
Cc1ccc(-c2cnc3[nH]c(-c4ccccc4)cc3c2)nc1C(=O)N1CCC(N)CC1 [Compound P-0033, (4-amino-1-piperidyl)-[3-methyl-6-(2-phenyl-1H-pyrrolo[2,3-b]pyridin-5-yl)-2-pyridyl]methanone]	0.0001 to 10
NC1CCN(c2cccc3ccc(-c4cnc5[nH]c(-c6ccccc6)cc5c4)nc23)CC1 [Compound P-0034, 1-[2-(2-phenyl-1H-pyrrolo[2,3-b]pyridin-5-yl)-8-quinolyl]piperidin-4-amine]	0.0001 to 10
Cc1ccc(-c2cnc3[nH]c(-c4ccccc4)cc3c2)cc1C(=O)N1CCC(N)CC1 [Compound P-0035, (4-amino-1-piperidyl)-[2-methyl-5-(2-phenyl-1H-pyrrolo[2,3-b]pyridin-5-yl)phenyl]methanone]	0.0001 to 10
N[C@H]1CCN(C(=O)c2cccc(-c3cnc4[nH]c(-c5ccccc5)cc4c3)c2)C1 [Compound P-0036, [(3S)-3-aminopyrrolidin-1-yl]-[3-(2-phenyl-1H-pyrrolo[2,3-b]pyridin-5-yl)phenyl]methanone]	0.0001 to 10
NC1CCN(C(=O)c2cc(-c3cnc4[nH]c(-c5ccccc5)cc4c3)ccn2)CC1 [Compound P-0038, (4-amino-1-piperidyl)-[4-(2-phenyl-1H-pyrrolo[2,3-b]pyridin-5-yl)-2-pyridyl]methanone]	0.0001 to 10
O=C(NC1CCNCC1)c1n[nH]c2ccc(-c3cnc4[nH]c(-c5ccccc5)cc4c3)cc12 [Compound P-0039, 5-(2-phenyl-1H-pyrrolo[2,3-b]pyridin-5-yl)-N-(4-piperidyl)-1H-indazole-3-carboxamide]	0.0001 to 10
CNC1CCN(C(=O)c2cccc(-c3cnc4[nH]c(-c5ccccc5)cc4c3)n2)CC1 [Compound P-0041, [4-(methylamino)-1-piperidyl]-[6-(2-phenyl-1H-pyrrolo[2,3-b]pyridin-5-yl)-2-pyridyl]methanone]	0.0001 to 10
NC1CCN(C(=O)c2c[nH]c3ccc(-c4cnc5[nH]c(-c6ccccc6)cc5c4)cc23)CC1 [Compound P-0042, (4-amino-1-piperidyl)-[5-(2-phenyl-1H-pyrrolo[2,3-b]pyridin-5-yl)-1H-indol-3-yl]methanone]	0.0001 to 10
O=C(c1cccc(-c2cnc3[nH]c(-c4ccccc4)cc3c2)n1)C1CCNCC1 [Compound P-0043, [6-(2-phenyl-1H-pyrrolo[2,3-b]pyridin-5-yl)-2-pyridyl]-(4-piperidyl)methanone]	0.0001 to 10
CNC1CCN(C(=O)c2n[nH]c3ccc(-c4cnc5[nH]c(-c6ccccc6)cc5c4)cc23)CC1 [Compound P-0044, [4-(methylamino)-1-piperidyl]-[5-(2-phenyl-1H-pyrrolo[2,3-b]pyridin-5-yl)-1H-indazol-3-yl]methanone]	0.0001 to 10
O=C(NC1CCNC1)c1cccc(-c2cnc3[nH]c(-c4ccccc4)cc3c2)n1 (stereo not drawn) [Compound P-0045, 6-(2-phenyl-1H-pyrrolo[2,3-b]pyridin-5-yl)-N-pyrrolidin-3-yl-pyridine-2-carboxamide]	0.0001 to 10
N[C@H]1CCN(C(=O)c2cc(-c3cnc4[nH]c(-c5ccccc5)cc4c3)ccn2)C1 [Compound P-0046, [(3S)-3-aminopyrrolidin-1-yl]-[4-(2-phenyl-1H-pyrrolo[2,3-b]pyridin-5-yl)-2-pyridyl]methanone]	0.0001 to 10
NC1CCC(C(=O)N2Cc3c(cccc3-c3cnc4[nH]c(-c5ccccc5)cc4c3)C2=O)C1 (stereo not drawn) [Compound P-0047, 2-(3-aminocyclopentanecarbonyl)-4-(2-phenyl-1H-pyrrolo[2,3-b]pyridin-5-yl)isoindolin-1-one]	0.0001 to 10
N[C@H]1CCN(C(=O)c2csc(-c3cnc4[nH]c(-c5ccccc5)cc4c3)n2)C1 [Compound P-0048, [(3S)-3-aminopyrrolidin-1-yl]-[2-(2-phenyl-1H-pyrrolo[2,3-b]pyridin-5-yl)thiazol-4-yl]methanone]	50 to 100
c1ccc(-c2cc3cc(-c4ccc5[nH]nc(NC6CNC6)c5c4)cnc3[nH]2)cc1 [Compound P-0053, N-(azetidin-3-yl)-5-(2-phenyl-1H-pyrrolo[2,3-b]pyridin-5-yl)-1H-indazol-3-amine]	0.0001 to 10
c1ccc(-c2cc3cc(-c4ccc5[nH]nc(NC6CCNCC6)c5c4)cnc3[nH]2)cc1 [Compound P-0056, 5-(2-phenyl-1H-pyrrolo[2,3-b]pyridin-5-yl)-N-(4-piperidyl)-1H-indazol-3-amine]	0.0001 to 10
N=C(N)N1CCN(C(=O)c2cccc(-c3cnc4[nH]c(-c5ccccc5)cc4c3)n2)CC1 [Compound P-0057, 4-[6-(2-phenyl-1H-pyrrolo[2,3-b]pyridin-5-yl)pyridine-2-carbonyl]piperazine-1-carboxamidine]	0.0001 to 10
c1ccc(-c2cc3cc(-c4ccc5[nH]nc(NC6CCNC6)c5c4)cnc3[nH]2)cc1 (stereo not drawn) [Compound P-0059, 5-(2-phenyl-1H-pyrrolo[2,3-b]pyridin-5-yl)-N-pyrrolidin-3-yl-1H-indazol-3-amine]	0.0001 to 10
NC1CCCN(C(=O)c2cccc(-c3cnc4[nH]c(-c5ccccc5)cc4c3)n2)C1 (stereo not drawn) [Compound P-0067, (3-amino-1-piperidyl)-[6-(2-phenyl-1H-pyrrolo[2,3-b]pyridin-5-yl)-2-pyridyl]methanone]	0.0001 to 10
O=C(c1cccc(-c2cnc3[nH]c(-c4ccccc4)cc3c2)n1)N1CCC(O)C1 (stereo not drawn) [Compound P-0068, (3-hydroxypyrrolidin-1-yl)-[6-(2-phenyl-1H-pyrrolo[2,3-b]pyridin-5-yl)-2-pyridyl]methanone]	0.0001 to 10
O=C(c1cccc(-c2cnc3[nH]c(-c4ccccc4)cc3c2)n1)N1CCCC(O)C1 (stereo not drawn) [Compound P-0069, (3-hydroxy-1-piperidyl)-[6-(2-phenyl-1H-pyrrolo[2,3-b]pyridin-5-yl)-2-pyridyl]methanone]	0.0001 to 10
